Experimental data: patent publication US20110301162A1, “AURORA KINASE MODULATORS AND METHODS OF USE” (AMGEN INC., priority 2008, published 2011)

How the values were obtained:
[1] = target: T1, AuroraA-TPX2 (Homo sapiens, UniProt O14965); experiment: AuroraA-TPX2 Homogeneous Time Resolved Fluorescent (HTRF) kinase assay; format: biochemical; conditions: average; ATP about 1 μM; read-out: AurA_IC50_IP (uM Avg)
T1 construct: 20 μL of AuroraA-TPX2 KD GST; GST
T1 sequence (O14965 133-383 limits assumed): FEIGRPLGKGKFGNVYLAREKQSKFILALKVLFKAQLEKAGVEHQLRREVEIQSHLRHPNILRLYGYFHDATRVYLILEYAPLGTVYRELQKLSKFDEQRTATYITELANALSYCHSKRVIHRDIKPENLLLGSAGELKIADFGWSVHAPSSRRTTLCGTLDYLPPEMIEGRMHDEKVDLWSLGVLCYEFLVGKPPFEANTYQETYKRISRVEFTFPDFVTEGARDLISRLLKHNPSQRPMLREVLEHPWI
T1 sequence (Q9ULW0 1-43 partner limits assumed): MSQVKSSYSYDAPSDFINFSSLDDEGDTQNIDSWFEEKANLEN
Experimental: The Aurora-A HTRF assay begins with Aurora-A in the presence of ATP phosphorylating the biotinylated peptide PLK. The reaction incubates for about 120 min. Detection reagents are added to quench the reaction. These agents stop the reaction by diluting out the enzyme and chelating the metals due to the presence of EDTA. After addition, the assay is incubated overnight to allow the detection reagents to equilibrate.
The AuroraA HTRF assay comprises 1 μL of compound in 100% DMSO, 20 μL of ATP and biotinylated PLK, and 20 μL of AuroraA-TPX2 KD GST for a final volume of about 41 μL. The final concentration of PLK is about 1 μM. The final concentration of ATP is about 1 μM (Km(app)=1 μM+/−0.1) and the final concentration of AuroraA is about 5 nM. Buffer conditions are as follows: 60 mM HEPES pH 7.5, 25mM NaCl, 10 mM MgCl, 2 mM DTT, 0.05% BSA.
(§1) The assay is quenched and stopped with 160 μL of detection reagent. Detection reagents are as follows: Buffer made of 50 mM Tris, pH 7.5, 100 mM NaCl, 3 mM EDTA, 0.05% BSA, 0.1% Tween20. Added to this buffer prior to reading is Steptavidin allophycocyanin (SA-APC) at a final conc in the assay of 0.0005 mg/mL, and europilated anti-phosphoPLK Ab (Eu-anti-PLK) at a final conc of 0.02 nM.
(§2) The assay plate is read in either a Discovery or a RubyStar. The eu-anti-PLK is excited at 320 nm and emits at 615 nm to excite the SA-APC which in turn emits at 655 nm. The ratio of SA-APC at 655 nm (excited due to close proximity to the Eu-anti-PLK because of phosphorylation of the peptide) to free Eu-anti-PLK at 615 nm will give substrate phosphorylation.
Many of the Examples described herein were tested and found to be active compounds. Table I includes related biological data, which may be interpreted using the activity gauge below.

[2] = target: T2, AuroraB (Homo sapiens, UniProt Q96GD4); experiment: AuroraB Homogeneous Time Resolved Fluorescent (HTRF) kinase assay; format: biochemical; conditions: average; ATP 23 μM; read-out: AurB_IC50_IP (uM Avg)
T2 construct: 20 μL of AuroraB FL His; His
T2 sequence (Q96GD4 whole entry): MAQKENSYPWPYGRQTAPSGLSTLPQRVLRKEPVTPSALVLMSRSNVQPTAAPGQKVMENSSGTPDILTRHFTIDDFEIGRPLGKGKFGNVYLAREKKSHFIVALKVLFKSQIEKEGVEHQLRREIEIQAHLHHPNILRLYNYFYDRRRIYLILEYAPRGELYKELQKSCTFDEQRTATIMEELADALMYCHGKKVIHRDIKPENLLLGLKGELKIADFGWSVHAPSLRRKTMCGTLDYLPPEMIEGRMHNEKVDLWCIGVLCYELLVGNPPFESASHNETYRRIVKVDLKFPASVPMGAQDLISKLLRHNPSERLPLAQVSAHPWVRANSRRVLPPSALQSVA
Experimental: The AuroraB HTRF assay begins with AuroraB in the presence of ATP phosphorylating the biotinylated peptide Histone H3. The reaction incubates for about 90 min. the reaction is quentched by addition of detection reagents, which stop the reaction by diluting out the enzyme and chelating the metals due to the presence of EDTA. After addition, the assay is incubated for about 60 min to allow detection reagents to equilibrate.
The AuroraB HTRF assay comprises 1 μL of compound in 100% DMSO, 20 μL of ATP and biotinylated Histone H3, and 20 μL of AuroraB FL His for a final volume of 41 μL. The final concentration of Histone H3 is 0.1 μM. The final concentration of ATP is 23 μM (Km(app)=23 μM+/−2.6) and the final concentration of AuroraB is 400 pM. Buffer conditions are as follows: 50 mM HEPES pH 7.5, 5 mM NaCl, 0.5 mM MgCl, 0.5 mM MnCl, 2 mM DTT, 0.05% BSA.
as §1, with “0.001” for “0.0005”, “anti-phosphoHistoneH3” for “anti-phosphoPLK”, “(Eu-anti-HisH3)” for “(Eu-anti-PLK)”, “0.064” for “0.02”
as §2, with “eu-anti-HisH3” for “eu-anti-PLK”, “Eu-anti-HisH3” for “Eu-anti-PLK”
Many of the Examples described herein were tested, and fund to be active compounds. Table I includes related biological data, which may be interpreted using the activity gauge below.

[3] = tested on: HeLa cells; experiment: HeLa cell 24 hr ploidy assay; format: cell-based; conditions: Homo sapiens, 24 hrs treatment, DNA ploidy, average, read-out: 24h_4N Ploidy EC50_IP (uM Avg)
Experimental: The purpose of this assay is to evaluate the ability of selected individual compounds to induce Deoxyribonucleic acid (DNA) content (ploidy) in cells through failed cell division. Cell cycle analysis is a rapid and efficient way to evaluate the status of DNA content (ploidy) of a given cell. HeLa cells (1×10^4 HeLa cells/well) in 100 ul of media (MEM+10% FBS) were plated in 96-well plates (Packard View) and cultured for 24 hrs at 37° C. maintained in a 5% CO2 atmosphere. The following day, cells were treated for 24 hrs with inhibitor compounds (10 pt. Dose ranging from 0.0024-1.25 umol/L). The compounds were serially diluted in DMSO (0.25% final concentration). The cells were fixed (3.7% Formaldehyde and 1% glutaraldehyde) and permeabilized (1×PBS with 1% BSA an d0.2% Triton X-100) in preparation for nuclear staining. The well plates were stained for 45 minutes at RT in the dark using Hoechest 33342 nuclear stain at 0.5 ug.ml (Stock of 10 mg/ml, Invitrogen, Calif., Cat #H3570). The nuclear stain was removed by aspiration and the cells were washed with wash buffer. A Cellomics Array Scan Vti plate reader was used to acquire the DNA ploidy data of the cells using Cell Cycle bioapplication. Numbers for each of “valid cell count/well”, “% of 4N cells” and “% of >4Ncells” were calculated with the assistance of an Activity Base 5.1ca software and dose curves were generated using an XLFit software. With XLFit, final EC50 IP and EC50 transit values, as well as the Max and Min, were calculated for each curve.

| Structure (SMILES) | IC50 [1] | IC50 [2] | EC50 [3] |
| --- | --- | --- | --- |
| CS(=O)(=O)CCNc1cc(Oc2ccc(Nc3nnc(-c4ccc(Cl)cc4)c4ccccc34)cc2)ccn1 [Example 29, 4-(4-chlorophenyl)-N-(4-((2-((2-(methylsulfonyl)ethyl)amino)-4-pyridinyl)oxy)phenyl)-1-phthalazinamine] | 0.1 to 0.5 µM | 0.1 to 0.5 µM | 1 to 5 µM |
| CNCCNc1nccc(Sc2ccc(Nc3nnc(-c4ccc(Cl)cc4)c4ccccc34)cc2)n1 [Example 34, N-(4-((4-((4-(4-chlorophenyl)-1-phthalazinyl)amino)phenyl)sulfanyl)-2-pyrimidinyl)-N′-methyl-1,2-ethanediamine] | 1 to 5 µM | 0.5 to 1 µM | 0.1 to 0.5 µM |
| Nc1cc(Sc2ccc(Nc3nnc(-c4ccc(Cl)cc4)c4ccccc34)cc2)ccn1 [Example 27, N-(4-((2-amino-4-pyridinyl)thio)phenyl)-4-(4-chlorophenyl)-1-phthalazinamine] | 0.1 to 0.5 µM | < 0.1 µM | 0.1 to 0.5 µM |
| Clc1ccc(-c2nnc(Nc3ccc(Oc4ccnc(-c5nc6ccccc6[nH]5)c4)cc3)c3ccccc23)cc1 [Example 38, N-(4-((2-(1H-benzimidazol-2-yl)-4-pyridinyl)oxy)phenyl)-4-(4-chlorophenyl)-1-phthalazinamine] | 0.1 to 0.5 µM | < 0.1 µM | < 0.1 µM |
| OCCNc1nccc(Sc2ccc(Nc3nnc(-c4ccccc4)c4ccccc34)cc2)n1 [Example 31, 2-((4-((4-((4-phenyl-1-phthalazinyl)amino)phenyl)sulfanyl)-2-pyrimidinyl)amino)ethanol] | 0.1 to 0.5 µM | < 0.1 µM | 0.1 to 0.5 µM |
| CSc1nccc(Oc2ccc(Nc3nnc(-c4ccccc4)c4ccccc34)cc2)n1 [Example 43, N-(4-((2-(methylthio)-4-pyrimidinyl)oxy)phenyl)-4-phenyl-1-phthalazinamine] |  | 1 to 5 µM | 0.1 to 0.5 µM |
| Clc1ccc(-c2nnc(Nc3ccc(Sc4ccnc(/C=C/c5ccccc5)n4)cc3)c3ccccc23)cc1 [Example 35, 4-(4-chlorophenyl)-N-(4-((2-((E)-2-phenylethenyl)-4-pyrimidinyl)sulfanyl)phenyl)-1-phthalazinamine] | 0.1 to 0.5 µM | < 0.1 µM | < 0.1 µM |
| Clc1ccc(-c2nnc(Nc3ccc(Oc4ccnc(/C=C/c5ccccc5)n4)cc3)c3ccccc23)cc1 [Example 30, 4-(4-chlorophenyl)-N-(4-((2-((E)-2-phenylethenyl)-4-pyrimidinyl)oxy)phenyl)-1-phthalazinamine] | 0.1 to 0.5 µM | < 0.1 µM | 0.1 to 0.5 µM |
| CNc1cc(Sc2ccc(Nc3nnc(-c4ccc(Cl)cc4)c4ccccc34)cc2)ccn1 [Example 28, 4-(4-chlorophenyl)-N-(4-((2-(methylamino)-4-pyridinyl)thio)phenyl)-1-phthalazinamine] | 0.1 to 0.5 µM | < 0.1 µM | 0.1 to 0.5 µM |
| c1ccc(-c2nnc(Nc3ccc(Sc4ccnc(-c5cc6ccccc6[nH]5)n4)cc3)c3ccccc23)cc1 [Example 42, N-(4-((2-(1H-indol-2-yl)-4-pyrimidinyl)sulfanyl)phenyl)-4-phenyl-1-phthalazinamine] |  | 0.1 to 0.5 µM | 1 to 5 µM |
| Cc1ccc(-c2nnc(Nc3ccc(Sc4ccnc(-c5cc6ccccc6[nH]5)n4)cc3)c3ccccc23)cc1N [Example 41, 4-(3-amino-4-methylphenyl)-N-(4-((2-(1H-indol-2-yl)-4-pyrimidinyl)sulfanyl)phenyl)-1-phthalazinamine] | 0.1 to 0.5 µM | < 0.1 µM |  |
| CNCCNc1nccc(Sc2ccc(Nc3nnc(-c4ccccc4)c4ccccc34)cc2)n1 [Example 33, N-methyl-N′-(4-((4-((4-phenyl-1-phthalazinyl)amino)phenyl)sulfanyl)-2-pyrimidinyl)-1,2-ethanediamine] |  | 1 to 5 µM | 1 to 5 µM |
| Clc1ccc(-c2nnc(Nc3ccc(Oc4ccnc(/C=C/c5ccccc5)c4)cc3)c3ccccc23)cc1 [Example 40, 4-(4-chlorophenyl)-N-(4-((2-((E)-2-phenylethenyl)-4-pyridinyl)oxy)phenyl)-1-phthalazinamine] | 0.1 to 0.5 µM | < 0.1 µM |  |
